# Laboratory results: PubChem BioAssay AID540314 (Broad Institute, 2011)
# Inconclusive results are not listed. Active and inactive are the calls of the source.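 The calls were made as follows: active = compounds whose fitted half-maximal potency is at most ten times their top valid tested dose, reducing viability; inconclusive = flat curve with 30 to 70% viability loss, or poor fit; inactive = the rest.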
# Test system: not listed separately
# Assay: viability loss in BJeHLT fibroblasts, dose response, counter-screen for Ras selective lethality project, cell-based, plate reader, dry powder, set 4 (AID 540314)
# Details: BJeHLT fibroblasts viability, Alamar Blue fluorescence, 48 h; at 48 µM (top of the series)
row,Structure (SMILES),"activity change, negative = less viable"
1,Cc1onc(C(=O)N2CCN(Cc3ccccc3)CC2)c1[N+](=O)[O-],8.05% (inactive)

# Test system: BJeHLT fibroblasts viability, Alamar Blue fluorescence, 48 h
# Assay: as above
# Details: not given
row,Structure (SMILES),AC50
1,Cc1onc(C(=O)N2CCN(C(c3ccccc3)c3ccc(Cl)cc3)CC2)c1[N+](=O)[O-] (stereo not given),2.04 µM
2,Cc1onc(C(=O)N2CCN(C(c3ccc(Cl)cc3)c3ccc(Cl)cc3)CC2)c1[N+](=O)[O-],0.844 µM
3,CCOc1ccccc1-n1c(C(C)N2CCN(C(=O)COc3ccc(Cl)cc3)CC2)nc2ccccc2c1=O (stereo not given),4.19 µM
4,Cc1onc(C(=O)N2CCN(C(c3ccc(F)cc3)c3ccc(F)cc3)CC2)c1[N+](=O)[O-],2.12 µM
5,COC(=O)c1ccc([C@@H]2c3[nH]c4ccccc4c3C[C@@H](C(=O)OC)N2C(=O)CCl)cc1,1.57 µM
6,COc1ccc(C(c2ccc(OC)cc2)N2CCN(C(=O)c3ccc([N+](=O)[O-])o3)CC2)cc1,6.87 µM
7,O=C(c1ccc([N+](=O)[O-])o1)N1CCN(C(c2ccc(F)cc2)c2ccc(F)cc2)CC1,14.8 µM
8,Cc1onc(C(=O)N2CCN(C(c3ccccc3)c3ccccc3)CC2)c1[N+](=O)[O-],7.25 µM
9,O=C(NCCNC(c1ccccc1)c1ccccc1)c1ccc([N+](=O)[O-])o1,4.66 µM
